From PubChem BioAssay (NCI)
Values joined by “and” are separate entries in the source; they are usually repeats but may differ in a detail not shown here. Identical values can stand only once.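 96-well plates; 48 h exposure; 5 concentrations. Endpoints by linear interpolation between flanking doses. Not reached: highest tested concentration assigned. Abbreviation: GI50, concentration required for 50% inhibition of growth. The concentration for full growth arrest is given as TGI.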

Experiments:
Experiment in all cases: NCI anticancer screen, dose series, 48 h
[1] = test system: A549 NSCLC
[2] = test system: EKVX NSCLC
[3] = test system: HCT-116 colon
[4] = test system: M14 melanoma
[5] = test system: MCF7 breast
[6] = test system: MOLT-4 leukemia
[7] = test system: RXF 393 renal
[8] = test system: SK-MEL-28 melanoma
[9] = test system: SN12C renal
[10] = test system: A498 renal

SMILES: O=C(Nc1ccn(C2CC(O)C(COC(c3ccccc3)(c3ccccc3)c3ccccc3)O2)c(=O)n1)c1ccccc1 (stereo not given)
- TGI [1]: 16.7 µM
- TGI [2]: 16.2 µM
- TGI [3]: 4.29 µM
- TGI [4]: 4.57 µM
- TGI [5]: 8.39 µM
- TGI [6]: 5.1 µM
- TGI [7]: 6.99 µM
- TGI [8]: 12.1 µM
- TGI [9]: 3.61 µM

SMILES: O=C(N/C(=C\c1ccc([N+](=O)[O-])cc1)c1nc2ccccc2s1)c1ccccc1
- TGI [10]: > 100 µM
- TGI [1]: > 100 µM
- TGI [3]: > 100 µM
- TGI [4]: 81.8 µM
- TGI [6]: 48 µM
- TGI [7]: 78.4 µM
- TGI [8]: > 100 µM
- TGI [9]: 44.9 µM

SMILES: COc1ccc(/C=C/C(=N\NC(=O)c2ccccc2)c2sc(Nc3ccc([N+](=O)[O-])cc3)nc2C)cc1OC
- TGI [1]: 28.9 µM
- TGI [2]: 91 µM
- TGI [3]: > 100 µM
- TGI [4]: 28.9 µM
- TGI [6]: > 100 µM
- TGI [7]: 52.5 µM
- TGI [8]: 47.2 µM
- TGI [9]: > 100 µM

SMILES: COC(=O)CC1(O)C(=O)OCc2c1cc1n(c2=O)Cc2c-1nc1ccccc1c2OC (stereo not given)
- TGI [10]: 11.5 µM
- TGI [1]: > 100 µM
- TGI [2]: > 100 µM
- TGI [3]: > 100 µM
- TGI [4]: 32.2 µM
- TGI [6]: 0.165 µM
- TGI [7]: 8.42 µM
- TGI [8]: > 100 µM
- TGI [9]: 1.84 µM

SMILES: C/C=C/C=C/c1cc2cc3c(c(O)c2c(=O)[nH]1)C1(CC3)C(O)=c2c(=O)c3c(=O)cc(OC)c(=O)c=3c(=O)c2=C1O (stereo not given)
- GI50 [1]: 0.183 µM and 1.4 µM
- TGI [1]: 4.69 µM and 13.6 µM
- GI50 [2]: 0.188 µM and 1.12 µM
- TGI [2]: 3 µM and 12.2 µM
- GI50 [4]: 0.315 µM and 0.977 µM
- TGI [4]: 3.24 µM and 9.06 µM
- TGI [5]: 0.215 µM
- GI50 [7]: 0.622 µM and 3.36 µM
- TGI [7]: 3.13 µM and 10.4 µM
- TGI [8]: 4.93 µM and 20.1 µM

SMILES: CCN(CC)CCOC(COc1cc(C)cc(C)c1)COc1cc(C)cc(C)c1
- GI50 [1]: 4.56 µM
- TGI [1]: 16.9 µM
- GI50 [2]: 2.91 µM
- TGI [2]: 11.8 µM
- GI50 [3]: 3.31 µM
- TGI [3]: 14.9 µM
- GI50 [4]: 1.35 µM
- TGI [4]: 3.06 µM
- GI50 [5]: 2.17 µM
- TGI [5]: 5.33 µM
- GI50 [6]: 2.08 µM
- TGI [6]: 5.73 µM
- GI50 [7]: 2.06 µM
- TGI [7]: 5.07 µM
- GI50 [8]: 1.84 µM
- TGI [8]: 3.77 µM
- GI50 [9]: 2.62 µM
- TGI [9]: 15.6 µM

SMILES: O=C(O)CNc1ccc2c(c1)Cc1cc(Br)ccc1-2
- TGI [10]: 85.8 µM
- TGI [1]: > 81.3 µM
- TGI [2]: 49.7 µM
- TGI [3]: > 49.1 µM
- TGI [4]: > 77.1 µM
- TGI [5]: > 100 µM
- TGI [7]: > 94.6 µM
- TGI [8]: > 100 µM
- TGI [9]: > 69.4 µM

SMILES: Cc1cc(Cl)ccc1N=C1NC(=O)C(CC(=O)Nc2cccc(Cl)c2)S1 (stereo not given)
- TGI [10]: 92.4 µM
- TGI [1]: > 100 µM
- TGI [2]: > 100 µM
- TGI [3]: > 100 µM
- TGI [4]: > 100 µM
- TGI [7]: 72.6 µM
- TGI [8]: > 100 µM
- TGI [9]: > 100 µM

SMILES: CCOc1ccc2nc(NC(=O)C(=O)C3C(=O)C(CC4C(=O)c5ccccc5C4=O)C(=O)CC3(C)C)sc2c1 (stereo not given)
- TGI [1]: > 100 µM
- TGI [2]: > 100 µM
- TGI [3]: > 100 µM
- TGI [4]: > 100 µM
- TGI [5]: > 100 µM
- TGI [6]: 90.4 µM
- TGI [7]: > 100 µM
- TGI [8]: > 100 µM
- TGI [9]: > 100 µM

SMILES: COc1cc(C(=O)c2cnc(-c3c[nH]c4cccc(C)c34)[nH]2)cc(OC)c1OC
- GI50 [10]: 0.00176 µM
- TGI [10]: 0.00774 µM
- GI50 [1]: 0.0109 µM
- TGI [1]: > 100 µM
- GI50 [2]: 0.00804 µM
- GI50 [3]: 0.00346 µM
- TGI [3]: 11.1 µM
- GI50 [5]: 0.00344 µM
- TGI [5]: > 100 µM
- GI50 [6]: 0.0378 µM
- TGI [6]: > 100 µM
- GI50 [8]: 0.99 µM
- TGI [8]: 97.4 µM
- GI50 [9]: 0.00929 µM
- TGI [9]: > 100 µM

SMILES: COc1cc(C2CC(c3ccccc3)=NN2C=O)ccc1Oc1ccnc2cc(Cl)ccc12 (stereo not given)
- GI50 [10]: 6.9 µM
- TGI [10]: > 100 µM
- GI50 [1]: 8.87 µM
- TGI [1]: > 100 µM
- GI50 [2]: 3.67 µM
- TGI [2]: > 100 µM
- GI50 [3]: 6.07 µM
- TGI [3]: > 100 µM
- GI50 [4]: 5.83 µM
- TGI [4]: > 100 µM
- GI50 [5]: 5.7 µM
- TGI [5]: > 100 µM
- GI50 [7]: 15.4 µM
- TGI [7]: 47.6 µM
- GI50 [8]: > 100 µM
- TGI [8]: > 100 µM
- GI50 [9]: > 100 µM
- TGI [9]: > 100 µM

SMILES: CC(=O)CCC1(c2ccccc2)OC(=O)C(C#N)=C1c1ccccc1 (stereo not given)
- TGI [10]: > 100 µM
- TGI [1]: > 100 µM
- TGI [2]: > 100 µM
- TGI [3]: > 100 µM
- TGI [4]: > 100 µM
- TGI [6]: > 100 µM
- TGI [8]: > 100 µM
- TGI [9]: > 100 µM

SMILES: Nc1ccc(CC[C@H]2CCC/C=C/[C@@H]3C[C@H](O)C[C@H]3[C@H](O)/C=C/C(=O)O2)cc1
- GI50 [10]: 0.0169 µM
- TGI [10]: 0.0491 µM
- GI50 [1]: 0.0437 µM
- TGI [1]: > 100 µM
- GI50 [2]: 0.0374 µM
- TGI [2]: 2.49 µM
- GI50 [3]: 0.0314 µM
- TGI [3]: 0.114 µM
- GI50 [4]: 0.0337 µM
- TGI [4]: 10.7 µM
- GI50 [6]: 0.029 µM
- TGI [6]: 0.0847 µM
- GI50 [7]: 0.0215 µM
- TGI [7]: 0.0621 µM
- GI50 [8]: 0.0244 µM
- TGI [8]: 1.43 µM
- GI50 [9]: 0.0639 µM
- TGI [9]: > 100 µM

SMILES: CCc1ccc2c(c1)C(=O)c1c-2n(CCCN)c(=O)c2cc(OC)c(OC)cc12
- GI50 [2]: 1.92 µM
- TGI [2]: 3.44 µM
- GI50 [4]: 1.8 µM
- TGI [4]: 3.37 µM
- GI50 [5]: 1.58 µM
- TGI [5]: 3.43 µM
- GI50 [6]: 1.75 µM
- TGI [6]: 3.52 µM
- GI50 [8]: 1.77 µM
- TGI [8]: 3.19 µM
- GI50 [9]: 1.73 µM
- TGI [9]: 3.33 µM

SMILES: CC(C)c1ccc(O)c(Cc2cc(C(C)C)cc(Cc3cc(C(C)C)ccc3O)c2O)c1
- TGI [10]: 2.82 µM
- TGI [1]: 3.96 µM
- TGI [2]: 8.95 µM
- TGI [3]: 3.19 µM
- TGI [4]: 3.23 µM
- TGI [6]: 4.68 µM
- TGI [8]: 3.2 µM
- TGI [9]: 3.16 µM

SMILES: COC(=O)[C@@]12OC[C@]34[C@H]([C@@H](O)[C@@H]1O)[C@@]1(C)CC(=O)C(O)=C(C)[C@@H]1C[C@H]3OC(=O)[C@H](OC(=O)/C=C(\C)C(C)C)[C@@H]24
- GI50 [10]: 0.00487 µM
- TGI [10]: 0.0109 µM and 0.022 µM
- TGI [1]: 0.0168 µM and < 0.0163 µM and 0.0473 µM
- TGI [2]: 0.0517 µM and 0.0283 µM and 0.0316 µM
- TGI [3]: 0.0144 µM and 0.0478 µM
- TGI [4]: 0.0109 µM
- TGI [5]: 0.021 µM and 0.0264 µM
- TGI [7]: 0.0303 µM and 0.0297 µM
- TGI [8]: 0.0142 µM and < 0.0339 µM and 0.0317 µM
- TGI [9]: 0.0582 µM and 0.0317 µM and 0.102 µM

SMILES: O=C1C(Cl)=C(Nc2ccc(S(=O)(=O)c3ccc(NC4=C(Cl)C(=O)c5ccccc5C4=O)cc3)cc2)C(=O)c2ccccc21
- GI50 [10]: 3.72 µM
- TGI [10]: 16.2 µM
- GI50 [1]: 5.71 µM
- TGI [1]: 38.8 µM
- GI50 [2]: 2.36 µM
- TGI [2]: 9.07 µM
- GI50 [3]: 1.2 µM
- TGI [3]: 2.49 µM
- GI50 [4]: 1.82 µM
- TGI [4]: 3.26 µM
- GI50 [6]: 1.87 µM
- TGI [6]: 5.86 µM
- GI50 [7]: 1.6 µM
- TGI [7]: 2.96 µM
- GI50 [8]: 1.8 µM
- TGI [8]: 3.28 µM

SMILES: COC(=O)C(=O)C(C(=O)C(=O)Nc1ccc([N+](=O)[O-])cc1)c1nc2ccccc2[nH]c1=O (stereo not given)
- TGI [10]: > 100 µM
- TGI [1]: > 100 µM
- TGI [3]: > 100 µM
- TGI [4]: > 100 µM
- TGI [6]: > 100 µM
- TGI [7]: > 100 µM
- TGI [8]: > 100 µM
- TGI [9]: > 100 µM

SMILES: COc1cc2c(oc(=O)c3c4occc4cc(OC)c23)c2cccc(O)c12
- TGI [10]: > 100 µM
- TGI [1]: > 100 µM
- TGI [2]: > 100 µM
- TGI [3]: > 100 µM
- TGI [4]: > 100 µM
- TGI [6]: > 100 µM
- TGI [7]: > 100 µM
- TGI [8]: > 100 µM
- TGI [9]: > 100 µM
